Source: ChEMBL document CHEMBL1201861, “Genomics of Drug Sensitity in Cancer screening data, Wellcome Trust Sanger Institute”

Legend:
[1] = system: Capan-2; experiment: cells; format: functional, cell-based; details: Homo sapiens;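 note: Capan-2 cell growth inhibition, read out with a viability assay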
Description: SANGER: Inhibition of human Capan-2 cell growth in a cell viability assay.

[2] = system: D-423MG; experiment: cells; format: functional, cell-based; details: Homo sapiens
Description: SANGER: Inhibition of human D-423MG cell growth in a cell viability assay.

[3] = system: EGI-1; experiment: cells; format: functional, cell-based; details: Homo sapiens;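 note: cell viability readout used to gauge growth inhibition of EGI-1 cells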
Description: SANGER: Inhibition of human EGI-1 cell growth in a cell viability assay.

[4] = system: EPLC-272H; experiment: cells; format: functional, cell-based; details: Homo sapiens
Description: SANGER: Inhibition of human EPLC-272H cell growth in a cell viability assay.

[5] = system: GCT; experiment: cells; format: functional, cell-based; details: Homo sapiens;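 note: GCT cell line proliferation inhibition, read out with a cell viability assay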
Description: SANGER: Inhibition of human GCT cell growth in a cell viability assay.

[6] = system: H-EMC-SS; experiment: cells; format: functional, cell-based; details: Homo sapiens
Description: SANGER: Inhibition of human H-EMC-SS cell growth in a cell viability assay.

[7] = system: HCC70; experiment: cells; format: functional, cell-based; details: Homo sapiens;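 note: cell viability assay measuring how strongly the compound suppresses proliferation of HCC70 cells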
Description: SANGER: Inhibition of human HCC70 cell growth in a cell viability assay.

[8] = system: HN; experiment: cells; format: functional, cell-based; details: Homo sapiens
Description: SANGER: Inhibition of human HN cell growth in a cell viability assay.

[9] = system: KP-4; experiment: cells; format: functional, cell-based; details: Homo sapiens;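 note: human KP-4 cells, with growth inhibition read out through a cell viability assay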
Description: SANGER: Inhibition of human KP-4 cell growth in a cell viability assay.

[10] = system: LU-135; experiment: cells; format: functional, cell-based; details: Homo sapiens
Description: SANGER: Inhibition of human LU-135 cell growth in a cell viability assay.

[11] = system: LoVo; experiment: cells; format: functional, cell-based; details: Homo sapiens;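 note: growth inhibition of human LoVo cells, read out with a cell viability assay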
Description: SANGER: Inhibition of human LoVo cell growth in a cell viability assay.

[12] = system: M059J; experiment: cells; format: functional, cell-based; details: Homo sapiens;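 note: growth inhibition of M059J cells, read out with a cell viability assay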
Description: SANGER: Inhibition of human M059J cell growth in a cell viability assay.

[13] = system: MKN-45; experiment: cells; format: functional, cell-based; details: Homo sapiens;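 note: growth inhibition of human MKN-45 cells, measured with a cell viability assay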
Description: SANGER: Inhibition of human MKN45 cell growth in a cell viability assay.

[14] = system: NB12; experiment: cells; format: functional, cell-based; details: Homo sapiens;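 note: growth inhibition of human NB12 cells, read out by a cell viability assay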
Description: SANGER: Inhibition of human NB12 cell growth in a cell viability assay.

[15] = system: NCI-H1563; experiment: cells; format: functional, cell-based; details: Homo sapiens;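 note: growth inhibition of human NCI-H1563 cells, read out with a cell viability assay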
Description: SANGER: Inhibition of human NCI-H1563 cell growth in a cell viability assay.

[16] = system: NCI-H1623; experiment: cells; format: functional, cell-based; details: Homo sapiens;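 note: cell viability assay used as the read-out for growth inhibition of NCI-H1623 cells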
Description: SANGER: Inhibition of human NCI-H1623 cell growth in a cell viability assay.

[17] = system: NCI-H1666; experiment: cells; format: functional, cell-based; details: Homo sapiens;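 note: growth inhibition of the cell line, read out with a cell viability assay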
Description: SANGER: Inhibition of human NCI-H1666 cell growth in a cell viability assay.

[18] = system: NCI-H2030; experiment: cells; format: functional, cell-based; details: Homo sapiens;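 note: growth inhibition of human NCI-H2030 cells, read out by a cell viability assay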
Description: SANGER: Inhibition of human NCI-H2030 cell growth in a cell viability assay.

[19] = system: NCI-H2342; experiment: cells; format: functional, cell-based; details: Homo sapiens;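 note: growth inhibition of the cancer cell line, determined with a cell viability assay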
Description: SANGER: Inhibition of human NCI-H2342 cell growth in a cell viability assay.

[20] = system: NCI-H28; experiment: cells; format: functional, cell-based; details: Homo sapiens;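 note: growth inhibition of human NCI-H28 cells, read out as cell viability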
Description: SANGER: Inhibition of human NCI-H28 cell growth in a cell viability assay.

[21] = system: OC-314; experiment: cells; format: functional, cell-based; details: Homo sapiens
Description: SANGER: Inhibition of human OC-314 cell growth in a cell viability assay.

[22] = system: OE19; experiment: cells; format: functional, cell-based; details: Homo sapiens;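 note: growth inhibition of OE19 cells, measured through a cell viability read-out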
Description: SANGER: Inhibition of human OE19 cell growth in a cell viability assay.

[23] = system: RERF-LC-MS; experiment: cells; format: functional, cell-based; details: Homo sapiens;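 note: growth inhibition of human RERF-LC-MS cells, read out by a cell viability assay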
Description: SANGER: Inhibition of human RERF-LC-MS cell growth in a cell viability assay.

[24] = system: RH-18; experiment: cells; format: functional, cell-based; details: Homo sapiens, Rh18;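 note: growth inhibition of human RH-18 cells, read out with a cell viability assay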
Description: SANGER: Inhibition of human RH-18 cell growth in a cell viability assay.

[25] = system: SK-HEP1; experiment: cells; format: functional, cell-based, SK-HEP-1; details: Homo sapiens;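 note: cell viability readout used to quantify reduction in proliferation of human SK-HEP-1 cells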
Description: SANGER: Inhibition of human SK-HEP-1 cell growth in a cell viability assay.

[26] = system: SNU-387; experiment: cells; format: functional, cell-based; details: Homo sapiens
Description: SANGER: Inhibition of human SNU-387 cell growth in a cell viability assay.

[27] = system: SNU-449; experiment: cells; format: functional, cell-based; details: Homo sapiens
Description: SANGER: Inhibition of human SNU-449 cell growth in a cell viability assay.

[28] = system: SW1088; experiment: cells; format: functional, cell-based; details: Homo sapiens;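 note: growth inhibition of human SW1088 cells, read out by a cell viability assay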
Description: SANGER: Inhibition of human SW1088 cell growth in a cell viability assay.

[29] = system: T84; experiment: cells; format: functional, cell-based; details: Homo sapiens;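 note: growth inhibition measured with a cell viability readout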
Description: SANGER: Inhibition of human T84 cell growth in a cell viability assay.

[30] = system: BHY; experiment: cells; format: functional, cell-based; details: Homo sapiens;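 note: cell growth inhibition read out by a viability assay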
Description: SANGER: Inhibition of human BHY cell growth in a cell viability assay.

[31] = system: C3A; experiment: cells; format: functional, cell-based; details: Homo sapiens;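 note: growth inhibition of C3A human cells, quantified with a cell viability readout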
Description: SANGER: Inhibition of human C3A cell growth in a cell viability assay.

[32] = system: CAL-27; experiment: cells; format: functional, cell-based; details: Homo sapiens;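 note: Viability-based readout, IC50 reflecting inhibition of CAL-27 cell growth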
Description: SANGER: Inhibition of human CAL-27 cell growth in a cell viability assay.

[33] = system: TGBC11TKB; experiment: cells; format: functional, cell-based; details: Homo sapiens;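 note: growth inhibition of human TGBC11TKB cells, measured by a cell viability assay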
Description: SANGER: Inhibition of human TGBC11TKB cell growth in a cell viability assay.

[34] = system: U-251; experiment: cells; format: functional, cell-based; details: Homo sapiens;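 note: growth inhibition of human U-251 cells, read out through a cell viability assay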
Description: SANGER: Inhibition of human U251 cell growth in a cell viability assay.

[35] = system: YH-13; experiment: cells; format: functional, cell-based; details: Homo sapiens;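 note: cell viability readout of growth suppression in the human YH-13 cell line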
Description: SANGER: Inhibition of human YH-13 cell growth in a cell viability assay.

[36] = system: CAMA-1; experiment: cells; format: functional, cell-based; details: Homo sapiens;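 note: growth inhibition of CAMA-1 cells, read out with a cell viability assay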
Description: SANGER: Inhibition of human CAMA-1 cell growth in a cell viability assay.

[37] = system: CFPAC-1; experiment: cells; format: functional, cell-based; details: Homo sapiens;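 note: cell viability readout used to gauge suppression of CFPAC-1 cell proliferation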
Description: SANGER: Inhibition of human CFPAC-1 cell growth in a cell viability assay.

[38] = system: EHEB; experiment: cells; format: functional, cell-based; details: Homo sapiens;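 note: growth inhibition of human EHEB cells, read out with a cell viability assay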
Description: SANGER: Inhibition of human EHEB cell growth in a cell viability assay.

[39] = system: EW-12; experiment: SANGER: Inhibition of human EW-12 cell growth in a cell viability assay.; format: functional, cell-based; details: Homo sapiens, EW-12
[40] = system: IM-9; experiment: SANGER: Inhibition of human IM-9 cell growth in a cell viability assay.; format: functional, cell-based; details: Homo sapiens, IM-9
[41] = system: IMR-5; experiment: cells; format: functional, cell-based, Homo sapiens; details: Homo sapiens, IMR-5; read-out: IC50;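 note: growth inhibition of human IMR-5 cells, read out with a cell viability assay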
Description: SANGER: Inhibition of human IMR-5 cell growth in a cell viability assay.

[42] = system: Kasumi 1; experiment: cells; format: functional, cell-based, Homo sapiens; details: Homo sapiens, Kasumi 1;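 note: growth inhibition of human Kasumi-1 cells, read out by a cell viability assay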
Description: SANGER: Inhibition of human KASUMI-1 cell growth in a cell viability assay.

[43] = system: LC-1F; experiment: cells; format: functional, cell-based, Homo sapiens; details: Homo sapiens, LC-1F;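 note: growth inhibition of human LC-1F cells, read out with a cell viability assay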
Description: SANGER: Inhibition of human LC-1F cell growth in a cell viability assay.

[44] = system: MDA-MB-134-VI; experiment: cells; format: functional, cell-based, Homo sapiens; details: Homo sapiens, MDA-MB-134-VI
Description: SANGER: Inhibition of human MDA-MB-134-VI cell growth in a cell viability assay.

[45] = system: NCI-H128; experiment: SANGER: Inhibition of human NCI-H128 cell growth in a cell viability assay.; format: functional, cell-based; details: Homo sapiens, NCI-H128
[46] = system: NCI-H1882; experiment: cells; format: functional, cell-based, Homo sapiens; details: Homo sapiens, NCI-H1882;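 note: growth inhibition of the cell line, determined with a viability assay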
Description: SANGER: Inhibition of human NCI-H1882 cell growth in a cell viability assay.

[47] = system: SIMA; experiment: cells; format: functional, cell-based, Homo sapiens; details: Homo sapiens, SIMA;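 note: growth inhibition of SIMA cells, measured with a cell viability readout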
Description: SANGER: Inhibition of human SIMA cell growth in a cell viability assay.

[48] = system: SR; experiment: cells; format: functional, cell-based, Homo sapiens; details: Homo sapiens, SR
Description: SANGER: Inhibition of human SR cell growth in a cell viability assay.

[49] = system: U-698-M; experiment: cells; format: functional, cell-based, Homo sapiens; details: Homo sapiens, U-698-M
Description: SANGER: Inhibition of human U-698-M cell growth in a cell viability assay.

[50] = system: CESS; experiment: SANGER: Inhibition of human CESS cell growth in a cell viability assay.; format: functional, cell-based; details: Homo sapiens, CESS
[51] = system: CMK; experiment: cells; format: functional, cell-based, Homo sapiens; details: Homo sapiens, CMK;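 note: growth inhibition of CMK cells, read out as cell viability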
Description: SANGER: Inhibition of human CMK cell growth in a cell viability assay.

[52] = system: KNS-62; experiment: cells; format: functional, cell-based; details: Homo sapiens;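 note: inhibition of cell growth, read out with a cell viability assay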
Description: SANGER: Inhibition of human KNS-62 cell growth in a cell viability assay.

O=C1NC(=O)c2c1c(-c1ccccc1Cl)cc1[nH]c3ccc(O)cc3c21
IC50 [1]: > 2000 nM
IC50 [2]: > 2000 nM
IC50 [3]: > 2000 nM
IC50 [4]: > 2000 nM
IC50 [5]: > 2000 nM
IC50 [6]: > 2000 nM
IC50 [7]: > 2000 nM
IC50 [8]: 1300 nM
IC50 [9]: > 2000 nM
IC50 [10]: > 2000 nM
IC50 [11]: > 2000 nM
IC50 [12]: > 2000 nM
IC50 [13]: 852 nM
IC50 [14]: > 2000 nM
IC50 [15]: > 2000 nM
IC50 [16]: > 2000 nM
IC50 [17]: > 2000 nM
IC50 [18]: 1290 nM
IC50 [19]: > 2000 nM
IC50 [20]: > 2000 nM
IC50 [21]: > 2000 nM
IC50 [22]: > 2000 nM
IC50 [23]: > 2000 nM
IC50 [24]: > 2000 nM
IC50 [25]: > 2000 nM
IC50 [26]: > 2000 nM
IC50 [27]: > 2000 nM
IC50 [28]: > 2000 nM
IC50 [29]: > 2000 nM
IC50 [30]: 1150 nM
IC50 [31]: > 2000 nM
IC50 [32]: > 2000 nM
IC50 [33]: > 2000 nM
IC50 [34]: > 2000 nM
IC50 [35]: > 2000 nM
IC50 [36]: > 2000 nM
IC50 [37]: > 2000 nM

C[C@@H](Oc1cc(-c2cnn(C3CCNCC3)c2)cnc1N)c1c(Cl)ccc(F)c1Cl [CRIZOTINIB]
IC50 [38]: > 2000 nM
IC50 [39]: > 2000 nM
IC50 [40]: > 2000 nM
IC50 [41]: > 2000 nM
IC50 [42]: > 2000 nM
IC50 [43]: > 2000 nM
IC50 [44]: > 2000 nM
IC50 [45]: > 2000 nM
IC50 [46]: > 2000 nM
IC50 [47]: > 2000 nM
IC50 [48]: 126 nM
IC50 [49]: > 2000 nM
IC50 [50]: > 2000 nM
IC50 [51]: 1960 nM

NC1(c2ccc(-c3nc4ccn5c(=O)[nH]nc5c4cc3-c3ccccc3)cc2)CCC1 [MK-2206]
IC50 [1]: > 4000 nM
IC50 [2]: 2410 nM
IC50 [3]: > 4000 nM
IC50 [4]: 1170 nM
IC50 [5]: > 4000 nM
IC50 [6]: 499 nM
IC50 [7]: 598 nM
IC50 [8]: > 4000 nM
IC50 [52]: 3630 nM
IC50 [10]: > 4000 nM
IC50 [11]: 1330 nM
IC50 [12]: > 4000 nM
IC50 [14]: > 4000 nM
IC50 [15]: 482 nM
IC50 [16]: 3410 nM
IC50 [19]: > 4000 nM
IC50 [20]: > 4000 nM
IC50 [21]: 2150 nM
IC50 [22]: > 4000 nM
IC50 [23]: > 4000 nM
IC50 [24]: > 4000 nM
IC50 [25]: > 4000 nM
IC50 [26]: 1880 nM
IC50 [27]: > 4000 nM
IC50 [28]: 1950 nM
IC50 [29]: > 4000 nM
IC50 [30]: > 4000 nM
IC50 [31]: > 4000 nM
IC50 [32]: > 4000 nM
IC50 [33]: > 4000 nM
IC50 [34]: > 4000 nM
IC50 [35]: 2460 nM
IC50 [36]: > 4000 nM
IC50 [37]: > 4000 nM

CS(=O)(=O)N1CCN(Cc2cc3nc(-c4cccc5[nH]ncc45)nc(N4CCOCC4)c3s2)CC1 [PICTILISIB]
IC50 [1]: > 4000 nM
IC50 [2]: 1100 nM
IC50 [3]: 1850 nM
IC50 [4]: 687 nM
IC50 [5]: > 4000 nM
IC50 [6]: > 4000 nM
IC50 [7]: 2870 nM
IC50 [8]: 3070 nM
IC50 [52]: 3920 nM
IC50 [9]: > 4000 nM
IC50 [10]: > 4000 nM
IC50 [11]: 778 nM
IC50 [12]: > 4000 nM
IC50 [14]: 2850 nM
IC50 [15]: 916 nM
IC50 [16]: 304 nM
IC50 [17]: 2510 nM
IC50 [18]: 2240 nM
IC50 [19]: > 4000 nM
IC50 [20]: 3050 nM
IC50 [21]: > 4000 nM
IC50 [22]: > 4000 nM
IC50 [23]: > 4000 nM
IC50 [24]: > 4000 nM
IC50 [25]: > 4000 nM
IC50 [26]: 3160 nM
IC50 [27]: 2570 nM
IC50 [28]: 2490 nM
IC50 [29]: > 4000 nM
IC50 [30]: 3260 nM
IC50 [31]: > 4000 nM
IC50 [32]: > 4000 nM
IC50 [33]: > 4000 nM
IC50 [34]: > 4000 nM
IC50 [35]: 304 nM
IC50 [36]: > 4000 nM
IC50 [37]: > 4000 nM

CN(C)CCOc1ccc(-c2nc(-c3ccncc3)c(-c3ccc4c(c3)CC/C4=N\O)[nH]2)cc1 [SB590885]
IC50 [1]: > 5000 nM
IC50 [2]: > 5000 nM
IC50 [3]: > 5000 nM
IC50 [4]: > 5000 nM
IC50 [5]: > 5000 nM
IC50 [6]: 351 nM
IC50 [7]: > 5000 nM
IC50 [8]: > 5000 nM
IC50 [52]: > 5000 nM
IC50 [10]: > 5000 nM
IC50 [11]: > 5000 nM
IC50 [12]: > 5000 nM
IC50 [14]: > 5000 nM
IC50 [15]: > 5000 nM
IC50 [16]: > 5000 nM
IC50 [17]: > 5000 nM
IC50 [18]: > 5000 nM
IC50 [19]: > 5000 nM
IC50 [20]: > 5000 nM
IC50 [21]: > 5000 nM
IC50 [22]: > 5000 nM
IC50 [23]: > 5000 nM
IC50 [24]: > 5000 nM
IC50 [25]: > 5000 nM
IC50 [26]: > 5000 nM
IC50 [27]: > 5000 nM
IC50 [28]: > 5000 nM
IC50 [29]: > 5000 nM
IC50 [30]: > 5000 nM
IC50 [31]: > 5000 nM
IC50 [32]: > 5000 nM
IC50 [33]: > 5000 nM
IC50 [34]: > 5000 nM
IC50 [35]: > 5000 nM
IC50 [36]: > 5000 nM
IC50 [37]: > 5000 nM

COc1cc(N2CCC(N3CCN(C)CC3)CC2)ccc1Nc1ncc(Cl)c(Nc2ccccc2S(=O)(=O)C(C)C)n1 [TAE-684]
IC50 [38]: > 2000 nM
IC50 [39]: > 2000 nM
IC50 [40]: > 2000 nM
IC50 [41]: > 2000 nM
IC50 [42]: > 2000 nM
IC50 [43]: > 2000 nM
IC50 [44]: > 2000 nM
IC50 [45]: > 2000 nM
IC50 [46]: 1240 nM
IC50 [47]: > 2000 nM
IC50 [48]: 2.77 nM
IC50 [49]: > 2000 nM
IC50 [50]: > 2000 nM
IC50 [51]: 255 nM
